According to paper PMC9026127, “A Leucyl-tRNA Synthetase Urzyme: Authenticity of tRNA Synthetase Catalytic Activities and Promiscuous Phosphorylation of Leucyl-5′AMP” (International Journal of Molecular Sciences, 2022):

How the values were obtained:
P. horikoshii LeuRS = target: T1, P. horikoshii LeuRS (Pyrococcus horikoshii, UniProt O58698); assay: nitrocellulose filter binding, [^[…]] leucine; details: labelled compound; formed in situ from 25 μM [^14C] leucine and 50 μM ATP, presumed leucyl-5′AMP; pH 7.5, 20 mM MgCl2, 37 °C
T1 construct: gene leuS; full length, synthetic gene in pET-11a, E. coli BL21-CodonPlus(DE3)-RIPL, Ni-NTA purified (tag not described), heat step 80 °C
T1 sequence (O58698 1-967): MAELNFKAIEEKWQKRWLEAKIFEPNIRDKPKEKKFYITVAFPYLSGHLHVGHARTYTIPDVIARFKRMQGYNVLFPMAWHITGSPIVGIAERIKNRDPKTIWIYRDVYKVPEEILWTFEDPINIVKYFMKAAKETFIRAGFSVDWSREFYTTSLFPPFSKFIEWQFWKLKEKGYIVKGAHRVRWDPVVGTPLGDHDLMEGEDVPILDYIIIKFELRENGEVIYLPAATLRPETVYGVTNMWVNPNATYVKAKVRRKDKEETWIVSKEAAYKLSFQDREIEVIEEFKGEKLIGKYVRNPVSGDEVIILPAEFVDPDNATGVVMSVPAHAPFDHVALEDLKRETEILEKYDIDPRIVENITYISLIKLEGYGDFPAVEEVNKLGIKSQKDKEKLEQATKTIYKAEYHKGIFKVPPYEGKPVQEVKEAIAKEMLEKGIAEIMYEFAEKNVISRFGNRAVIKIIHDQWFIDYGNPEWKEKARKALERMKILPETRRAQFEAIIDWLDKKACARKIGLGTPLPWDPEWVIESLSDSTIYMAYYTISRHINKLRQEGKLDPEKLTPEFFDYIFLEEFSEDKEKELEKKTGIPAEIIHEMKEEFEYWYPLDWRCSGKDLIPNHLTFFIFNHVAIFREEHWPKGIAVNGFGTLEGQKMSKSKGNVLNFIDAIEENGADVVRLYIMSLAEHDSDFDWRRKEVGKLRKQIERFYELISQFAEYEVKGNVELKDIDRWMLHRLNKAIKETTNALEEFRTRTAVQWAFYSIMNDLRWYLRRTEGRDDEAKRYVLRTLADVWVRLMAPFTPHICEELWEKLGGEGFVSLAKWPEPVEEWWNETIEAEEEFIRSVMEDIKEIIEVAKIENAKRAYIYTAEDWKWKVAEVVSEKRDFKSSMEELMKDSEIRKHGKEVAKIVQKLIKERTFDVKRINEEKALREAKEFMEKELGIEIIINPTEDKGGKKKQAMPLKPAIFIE

[1] = target: T2, LeuAC (LeuRS urzyme), TEV-cleaved (Pyrococcus horikoshii, UniProt O58698); assay: Sephadex G15 size-exclusion co-elution of [^[…]] leucine label; assay type: binding; details: labelled compound; formed in situ from [^14C] leucine and ATP, presumed leucyl-5′AMP; 50 mM HEPES pH 7.5, 20 mM MgCl2, 37 °C; only a simulated upper limit for KD
T2 construct: gene leuS; MBP fusion (pMAL-c2x, E. coli), TEV-cleaved but MBP not separated; his-tagged

Ec LeuRS = target: T3, Ec LeuRS (Escherichia coli, UniProt P07813); details: leucine activation; 50 mM HEPES pH 7.5, 10 mM MgCl2, 10 μM ATP, 50 mM amino acid, pyrophosphatase
T3 construct: gene leuS
T3 sequence (P07813 whole entry): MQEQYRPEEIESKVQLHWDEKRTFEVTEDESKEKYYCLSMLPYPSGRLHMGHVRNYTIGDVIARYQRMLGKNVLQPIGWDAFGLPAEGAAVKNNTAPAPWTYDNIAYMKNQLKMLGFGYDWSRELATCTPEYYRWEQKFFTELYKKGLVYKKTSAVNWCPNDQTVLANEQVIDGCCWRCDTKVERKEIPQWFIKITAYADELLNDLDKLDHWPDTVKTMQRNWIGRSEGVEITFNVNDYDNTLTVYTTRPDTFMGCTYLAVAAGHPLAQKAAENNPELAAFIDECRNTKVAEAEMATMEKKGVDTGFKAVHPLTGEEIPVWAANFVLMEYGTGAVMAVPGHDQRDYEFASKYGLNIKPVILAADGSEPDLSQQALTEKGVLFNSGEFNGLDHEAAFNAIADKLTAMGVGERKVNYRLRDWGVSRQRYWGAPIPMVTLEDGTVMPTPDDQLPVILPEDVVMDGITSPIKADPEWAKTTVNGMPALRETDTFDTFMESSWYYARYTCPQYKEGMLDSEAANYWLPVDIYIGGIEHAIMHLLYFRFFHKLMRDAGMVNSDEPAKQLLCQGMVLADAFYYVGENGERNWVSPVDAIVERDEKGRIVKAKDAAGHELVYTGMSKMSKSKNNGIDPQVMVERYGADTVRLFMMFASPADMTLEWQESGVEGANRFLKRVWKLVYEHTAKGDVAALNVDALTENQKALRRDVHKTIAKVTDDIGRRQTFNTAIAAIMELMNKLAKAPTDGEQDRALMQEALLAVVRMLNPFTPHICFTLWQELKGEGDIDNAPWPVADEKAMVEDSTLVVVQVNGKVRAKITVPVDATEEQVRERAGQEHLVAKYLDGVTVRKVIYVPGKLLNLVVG

purified protein = substrate: CC(C)C[C@H](N)C(=O)O; assay: purified protein; assay type: biochemical, Pyrococcus horikoshii; details: unit not printed beside the value (M inferred), tRNA^Leu and ATP co-substrates, 50 mM HEPES pH 7.5, 10 mM MgCl2

`CC(C)C[C@H](N)C(=O)OP(=O)(O)OC[C@H]1O[C@@H](n2cnc3c(N)ncnc32)[C@H](O)[C@@H]1O` [leucyl-5′AMP] was tested, and the “moles [^14C] leucine/mole enzyme” value (P. horikoshii LeuRS) was 0.48 ± 0.13 mol/mol and the “Sephadex G15 size-exclusion co-elution of [^14C] leucine label” value [1] was “lower limit on both the stoichiometry and affinity of the active LeuAC•leucyl-5′ AMP complex”.

`Nc1ncnc2c1ncn2[C@@H]1O[C@H](COP(=O)(O)OP(=O)(O)OP(=O)(O)O)[C@@H](O)[C@H]1O` [ATP] was tested, and the “single-turnover active-site titration, [^32P] ATP, TLC” value (Ec LeuRS) was “Full-length LeuRS from both E. coli and P. horikoshii produce minor amounts of ADP”.

B1: P. horikoshii LeuRS (Pyrococcus horikoshii OT3) (protein)
chain: MAELNFKAIEEKWQKRWLEAKIFEPNIRDKPKEKKFYITVAFPYLSGHLHVGHARTYTIPDVIARFKRMQGYNVLFPMAWHITGSPIVGIAERIKNRDPKTIWIYRDVYKVPEEILWTFEDPINIVKYFMKAAKETFIRAGFSVDWSREFYTTSLFPPFSKFIEWQFWKLKEKGYIVKGAHRVRWDPVVGTPLGDHDLMEGEDVPILDYIIIKFELRENGEVIYLPAATLRPETVYGVTNMWVNPNATYVKAKVRRKDKEETWIVSKEAAYKLSFQDREIEVIEEFKGEKLIGKYVRNPVSGDEVIILPAEFVDPDNATGVVMSVPAHAPFDHVALEDLKRETEILEKYDIDPRIVENITYISLIKLEGYGDFPAVEEVNKLGIKSQKDKEKLEQATKTIYKAEYHKGIFKVPPYEGKPVQEVKEAIAKEMLEKGIAEIMYEFAEKNVISRFGNRAVIKIIHDQWFIDYGNPEWKEKARKALERMKILPETRRAQFEAIIDWLDKKACARKIGLGTPLPWDPEWVIESLSDSTIYMAYYTISRHINKLRQEGKLDPEKLTPEFFDYIFLEEFSEDKEKELEKKTGIPAEIIHEMKEEFEYWYPLDWRCSGKDLIPNHLTFFIFNHVAIFREEHWPKGIAVNGFGTLEGQKMSKSKGNVLNFIDAIEENGADVVRLYIMSLAEHDSDFDWRRKEVGKLRKQIERFYELISQFAEYEVKGNVELKDIDRWMLHRLNKAIKETTNALEEFRTRTAVQWAFYSIMNDLRWYLRRTEGRDDEAKRYVLRTLADVWVRLMAPFTPHICEELWEKLGGEGFVSLAKWPEPVEEWWNETIEAEEEFIRSVMEDIKEIIEVAKIENAKRAYIYTAEDWKWKVAEVVSEKRDFKSSMEELMKDSEIRKHGKEVAKIVQKLIKERTFDVKRINEEKALREAKEFMEKELGIEIIINPTEDKGGKKKQAMPLKPAIFIE
notes: full length, synthetic gene in pET-11a, E. coli BL21-CodonPlus(DE3)-RIPL, Ni-NTA purified (tag not described), heat step 80 °C
For B1, the Km (purified protein) was 5.9 ± 0.8 × 10^−6 M.
